Assay results from ChEMBL document CHEMBL4340507, “Identification of an indol-based multi-target kinase inhibitor through phenotype screening and target fishing using inverse virtual screening approach” (Eur J Med Chem, 2019).
Active and inactive are the calls of the source. The rule behind the calls is not given here.

What was measured:
[1] = biological target: Casein kinase II subunit alpha (Homo sapiens, UniProt P68400); test: Inhibition of recombinant human full-length N-terminal GST-fused CK2-alpha1 (M1 to Q391 residues) expressed in Sf9 insect cells using casein as substrate measured after 60 mins in presence of [gamma-33P]-ATP by scintillation counting method
[2] = biological target: Fibroblast growth factor receptor 1 (Homo sapiens, UniProt P11362); test: Inhibition of recombinant human wild-type N-terminal GST-His6-fused FGFR1 C-terminal domain (G400 to R820 residues) expressed in Sf9 insect cells using Poly(Glu:Tyr)4:1 as substrate measured after 60 mins in presence of [gamma-33P]-ATP by scintillation counting method
[3] = biological target: Vascular endothelial growth factor receptor 2 (Homo sapiens, UniProt P35968); test: Inhibition of recombinant human N-terminal GST-fused VEGFR2 C-terminal domain (D807 to V1356 residues) expressed in Sf9 insect cells using Poly(Glu:Tyr)4:1 as substrate measured after 60 mins in presence of [gamma-33P]-ATP by scintillation counting method
[4] = biological target: Mitogen-activated protein kinase kinase kinase 10 (Homo sapiens, UniProt Q02779); test: Inhibition of recombinant human MAP3K10 measured after 60 mins in presence of [gamma-33P]-ATP by scintillation counting method
IEC-6 [5] = test: Cell cycle arrest in rat IEC-6 cells assessed as decrease in accumulation at G2-phase at 0.1 to 0.6 uM after 24 hrs by propidium iodide staining-based FACS analysis; format: ADME; settings: iec-6, 24 h
MCF7 = test: Antiproliferative activity against human MCF7 cells assessed as decrease in cell viability measured after 72 hrs by MTT assay; format: functional, cell-based; settings: MCF7, 72 h
HeLa [6] = test: Induction of apoptosis in human HeLa cells assessed as increase in hypodiploid nuclei at 0.3 to 0.6 uM measured after 24 hrs by propidium iodide staining-based FACS analysis; format: functional, cell-based
[7] = biological target: Receptor tyrosine-protein kinase erbB-2 (Homo sapiens, UniProt P04626); test: Inhibition of recombinant human wild-type N-terminal GST-His6-fused ERBB2 C-terminal domain (Q679 to V1255 residues) expressed in Sf9 insect cells using Poly(Glu:Tyr)4:1 as substrate measured after 60 mins in presence of [gamma-33P]-ATP by scintillation counting method
[8] = Inhibition of ERK phosphorylation in rat IEC-6 cells at 0.1 to 0.6 uM after 24 hrs by FACS analysis; format: cell-based; settings: iec-6, 24 h
HeLa [9] = test: Induction of apoptosis in human HeLa cells assessed as effect on PARP level at 0.1 to 0.6 uM after 24 hrs by FACS analysis; format: functional, cell-based
PC-3 = test: Antiproliferative activity against human PC3 cells assessed as decrease in cell viability measured after 72 hrs by MTT assay; format: functional, cell-based; settings: PC-3, 72 h
[10] = biological target: Proto-oncogene tyrosine-protein kinase Src (Homo sapiens, UniProt P12931); test: Inhibition of recombinant human full-length N-terminal GST-His6-fused SRC (M1 to L536 residues) expressed in Sf9 insect cells using Poly(Glu:Tyr)4:1 as substrate measured after 60 mins in presence of [gamma-33P]-ATP by scintillation counting method
[11] = biological target: Dual specificity protein kinase CLK1 (Homo sapiens, UniProt P49759); test: Inhibition of recombinant human full-length N-terminal GST-His6-fused CLK1 (M1 to I484 residues) expressed in Sf9 cells using RS-peptide as substrate measured after 60 mins in presence of [gamma-33P]-ATP by scintillation counting method
IEC-6 [12] = test: Induction of apoptosis in rat IEC-6 cells assessed as effect on PARP level at 0.1 to 0.6 uM after 24 hrs by FACS analysis; format: cell-based; settings: iec-6, 24 h
[13] = biological target: Dual specificity mitogen-activated protein kinase kinase 2 (Homo sapiens, UniProt P36507); test: Inhibition of recombinant human MEK2 measured after 60 mins in presence of [gamma-33P]-ATP by scintillation counting method
[14] = biological target: Tyrosine-protein kinase ABL1 (Homo sapiens, UniProt P00519); test: Inhibition of recombinant human wild-type N-terminal GST-His6-fused ABL1 internal domain (P118 to S535 residues) expressed in Sf9 insect cells using Poly(Ala,Glu,Lys,Tyr)6:2:5:1 as substrate measured after 60 mins in presence of [gamma-33P]-ATP by scintillation counting method
[15] = biological target: Mitogen-activated protein kinase 15 (Homo sapiens, UniProt Q8TD08); test: Inhibition of recombinant human N-terminal 4xFLAG-tagged/C-terminal His8-fused ERK7 N-terminal domain (M1 to R354 residues) expressed in Sf9 insect cells using RBER-CHKtide as substrate measured after 60 mins in presence of [gamma-33P]-ATP by scintillation counting method
IEC-6 [16] = test: Cytotoxicity against rat IEC-6 cells assessed as reduction in cell viability measured after 24 to 72 hrs by MTT assay; format: cell-based; settings: Rattus norvegicus, IEC-6
[17] = biological target: RAC-beta serine/threonine-protein kinase (Homo sapiens, UniProt P31751); test: Inhibition of recombinant human N-terminal GST-His6-fused AKT2 C-terminal domain (A107 to E481 residues) expressed in Sf9 insect cells using GSK3(14-27)tide as substrate measured after 60 mins in presence of [gamma-33P]-ATP by scintillation counting method
[18] = biological target: Hepatocyte growth factor receptor (Homo sapiens, UniProt P08581); test: Inhibition of recombinant human wild-type N-terminal GST-His6-fused MET C-terminal domain (K956 to S1390 residues) expressed in Sf9 insect cells using TRK-C derived peptide as substrate measured after 60 mins in presence of [gamma-33P]-ATP by scintillation counting method
[19] = biological target: Vascular endothelial growth factor receptor 1 (Homo sapiens, UniProt P17948); test: Inhibition of recombinant human N-terminal GST-tagged VEGFR1 C-terminal domain (K784 to I1338 residues) expressed in Sf9 insect cells using Poly(Glu:Tyr)4:1 as substrate measured after 60 mins in presence of [gamma-33P]-ATP by scintillation counting method
[20] = biological target: Mitogen-activated protein kinase 7 (Homo sapiens, UniProt Q13164); test: Inhibition of recombinant human N-terminal FLAG-tagged/C-terminal His8 fused ERK5 internal fragment domain (L5 to Q397 residues) expressed in Sf9 insect ells using RBER-CHKtide as substrate measured after 60 mins in presence of [gamma-33P]-ATP by scintillation counting method
[21] = biological target: Mitogen-activated protein kinase kinase kinase 1 (Homo sapiens, UniProt Q13233); test: Inhibition of recombinant human N-terminal 4xFLAG-tagged/C-terminal His8 fused MAP3K1 C-terminal domain (M1193 to W1512 residues) expressed in Sf9 insect cells using Bio-RS-Peptide as substrate measured after 60 mins in presence of [gamma-33P]-ATP by scintillation counting method
Jurkat = test: Antiproliferative activity against human Jurkat T cells assessed as decrease in cell viability measured after 24 to 72 hrs by MTT assay; format: functional, cell-based
HeLa [22] = test: Induction of ROS generation in human HeLa cells at 0.1 to 0.6 uM measured after 24 hrs by H2DC-DA probe-based FACS analysis; format: functional, cell-based

Sequence of Vascular endothelial growth factor receptor 2 (P35968 whole entry, the tested form may be a part): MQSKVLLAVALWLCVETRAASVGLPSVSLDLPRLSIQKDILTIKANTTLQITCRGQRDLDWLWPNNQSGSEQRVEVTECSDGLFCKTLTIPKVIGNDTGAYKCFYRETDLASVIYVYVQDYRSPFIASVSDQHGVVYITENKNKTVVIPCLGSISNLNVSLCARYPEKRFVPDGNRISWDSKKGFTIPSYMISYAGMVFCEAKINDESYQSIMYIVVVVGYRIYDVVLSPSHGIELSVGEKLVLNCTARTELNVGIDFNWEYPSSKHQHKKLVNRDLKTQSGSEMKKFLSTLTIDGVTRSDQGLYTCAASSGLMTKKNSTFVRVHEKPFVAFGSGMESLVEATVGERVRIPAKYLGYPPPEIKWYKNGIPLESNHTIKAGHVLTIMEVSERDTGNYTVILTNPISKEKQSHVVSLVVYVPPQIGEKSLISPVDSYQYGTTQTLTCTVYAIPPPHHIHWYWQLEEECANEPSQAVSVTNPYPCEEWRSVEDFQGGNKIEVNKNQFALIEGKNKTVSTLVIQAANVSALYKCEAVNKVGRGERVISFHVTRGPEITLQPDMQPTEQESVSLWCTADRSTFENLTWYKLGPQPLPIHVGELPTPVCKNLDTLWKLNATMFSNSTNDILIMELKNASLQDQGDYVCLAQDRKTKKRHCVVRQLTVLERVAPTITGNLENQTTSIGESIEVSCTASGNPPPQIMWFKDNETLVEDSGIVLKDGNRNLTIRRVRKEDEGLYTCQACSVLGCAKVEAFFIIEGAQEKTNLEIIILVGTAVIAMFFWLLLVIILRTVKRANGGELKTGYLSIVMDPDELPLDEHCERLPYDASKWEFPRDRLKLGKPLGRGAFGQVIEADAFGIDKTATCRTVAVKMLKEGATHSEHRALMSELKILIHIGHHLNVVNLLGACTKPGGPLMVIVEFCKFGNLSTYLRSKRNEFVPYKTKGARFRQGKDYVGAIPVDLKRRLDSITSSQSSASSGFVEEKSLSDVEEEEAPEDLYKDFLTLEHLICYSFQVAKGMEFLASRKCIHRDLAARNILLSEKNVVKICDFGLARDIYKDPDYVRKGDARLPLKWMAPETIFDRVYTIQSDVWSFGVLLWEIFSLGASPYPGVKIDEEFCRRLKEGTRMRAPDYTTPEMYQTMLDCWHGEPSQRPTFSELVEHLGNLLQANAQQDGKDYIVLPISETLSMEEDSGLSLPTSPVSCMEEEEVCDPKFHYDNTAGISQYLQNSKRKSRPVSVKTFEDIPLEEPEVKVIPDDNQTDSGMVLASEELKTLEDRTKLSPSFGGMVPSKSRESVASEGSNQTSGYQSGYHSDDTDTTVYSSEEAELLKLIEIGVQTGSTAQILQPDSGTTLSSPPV
Sequence of Mitogen-activated protein kinase kinase kinase 10 (Q02779 whole entry): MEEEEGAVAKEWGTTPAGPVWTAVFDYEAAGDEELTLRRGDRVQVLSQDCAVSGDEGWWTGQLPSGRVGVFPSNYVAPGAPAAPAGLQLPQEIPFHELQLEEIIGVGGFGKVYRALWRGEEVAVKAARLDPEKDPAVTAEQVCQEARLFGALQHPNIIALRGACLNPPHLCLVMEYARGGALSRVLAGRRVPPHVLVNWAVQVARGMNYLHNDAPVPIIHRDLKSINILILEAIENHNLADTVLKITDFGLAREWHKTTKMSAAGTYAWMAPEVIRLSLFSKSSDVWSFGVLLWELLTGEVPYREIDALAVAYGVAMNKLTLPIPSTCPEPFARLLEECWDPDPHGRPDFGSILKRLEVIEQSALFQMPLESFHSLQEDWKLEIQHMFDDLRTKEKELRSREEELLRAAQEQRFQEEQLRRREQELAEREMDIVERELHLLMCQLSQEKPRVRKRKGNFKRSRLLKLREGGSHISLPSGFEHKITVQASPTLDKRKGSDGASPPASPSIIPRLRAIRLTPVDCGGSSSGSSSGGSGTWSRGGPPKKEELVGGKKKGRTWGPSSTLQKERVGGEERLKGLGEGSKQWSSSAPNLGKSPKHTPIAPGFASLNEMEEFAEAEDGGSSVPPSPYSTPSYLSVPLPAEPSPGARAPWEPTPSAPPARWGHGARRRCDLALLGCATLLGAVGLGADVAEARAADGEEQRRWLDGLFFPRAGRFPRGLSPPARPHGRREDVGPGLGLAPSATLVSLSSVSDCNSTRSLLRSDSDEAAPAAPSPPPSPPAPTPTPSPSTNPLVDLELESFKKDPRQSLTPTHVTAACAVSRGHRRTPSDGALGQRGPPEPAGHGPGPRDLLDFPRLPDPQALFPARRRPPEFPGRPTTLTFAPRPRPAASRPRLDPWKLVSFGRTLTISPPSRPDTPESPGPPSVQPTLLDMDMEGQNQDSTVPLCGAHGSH
Sequence of Mitogen-activated protein kinase kinase kinase 1 (Q13233 whole entry, the tested form may be a part): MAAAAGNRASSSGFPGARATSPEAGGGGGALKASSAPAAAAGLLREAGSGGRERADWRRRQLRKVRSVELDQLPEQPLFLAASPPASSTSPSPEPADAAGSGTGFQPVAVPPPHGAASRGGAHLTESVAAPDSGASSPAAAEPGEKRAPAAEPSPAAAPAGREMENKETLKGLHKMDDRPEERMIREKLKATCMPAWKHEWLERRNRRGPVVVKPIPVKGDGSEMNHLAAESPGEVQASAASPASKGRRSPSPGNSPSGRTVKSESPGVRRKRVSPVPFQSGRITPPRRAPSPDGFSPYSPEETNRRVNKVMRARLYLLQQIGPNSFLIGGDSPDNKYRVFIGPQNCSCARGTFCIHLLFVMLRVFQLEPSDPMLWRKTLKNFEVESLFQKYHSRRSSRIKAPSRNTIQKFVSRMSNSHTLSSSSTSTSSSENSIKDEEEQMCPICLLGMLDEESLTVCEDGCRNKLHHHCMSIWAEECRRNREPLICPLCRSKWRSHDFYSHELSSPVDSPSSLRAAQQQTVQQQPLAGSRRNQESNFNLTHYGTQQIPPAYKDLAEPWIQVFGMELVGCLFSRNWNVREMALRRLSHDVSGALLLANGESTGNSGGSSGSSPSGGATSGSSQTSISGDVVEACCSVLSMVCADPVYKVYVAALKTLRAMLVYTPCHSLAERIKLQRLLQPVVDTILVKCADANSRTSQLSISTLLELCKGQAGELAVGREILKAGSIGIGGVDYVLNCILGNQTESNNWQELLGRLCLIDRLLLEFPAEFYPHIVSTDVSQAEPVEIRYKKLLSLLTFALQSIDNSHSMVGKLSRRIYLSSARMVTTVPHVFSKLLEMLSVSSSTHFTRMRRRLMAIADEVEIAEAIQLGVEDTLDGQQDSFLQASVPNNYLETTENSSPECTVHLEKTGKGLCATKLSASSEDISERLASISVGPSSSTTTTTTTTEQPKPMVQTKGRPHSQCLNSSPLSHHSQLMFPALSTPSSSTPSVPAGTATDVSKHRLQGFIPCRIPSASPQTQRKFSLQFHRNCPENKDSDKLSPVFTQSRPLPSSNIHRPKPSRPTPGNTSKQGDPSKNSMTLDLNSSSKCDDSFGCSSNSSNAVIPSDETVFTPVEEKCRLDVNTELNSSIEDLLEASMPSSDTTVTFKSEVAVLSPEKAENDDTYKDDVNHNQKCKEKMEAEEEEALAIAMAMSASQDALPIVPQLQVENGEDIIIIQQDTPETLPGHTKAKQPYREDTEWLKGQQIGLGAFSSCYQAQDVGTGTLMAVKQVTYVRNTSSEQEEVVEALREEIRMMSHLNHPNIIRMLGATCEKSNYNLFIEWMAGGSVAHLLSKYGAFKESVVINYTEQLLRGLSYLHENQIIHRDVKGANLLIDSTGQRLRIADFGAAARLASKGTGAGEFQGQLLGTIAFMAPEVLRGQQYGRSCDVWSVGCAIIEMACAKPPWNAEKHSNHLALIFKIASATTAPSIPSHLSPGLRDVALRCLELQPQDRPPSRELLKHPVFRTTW
Sequence of Dual specificity protein kinase CLK1 (P49759 whole entry, the tested form may be a part): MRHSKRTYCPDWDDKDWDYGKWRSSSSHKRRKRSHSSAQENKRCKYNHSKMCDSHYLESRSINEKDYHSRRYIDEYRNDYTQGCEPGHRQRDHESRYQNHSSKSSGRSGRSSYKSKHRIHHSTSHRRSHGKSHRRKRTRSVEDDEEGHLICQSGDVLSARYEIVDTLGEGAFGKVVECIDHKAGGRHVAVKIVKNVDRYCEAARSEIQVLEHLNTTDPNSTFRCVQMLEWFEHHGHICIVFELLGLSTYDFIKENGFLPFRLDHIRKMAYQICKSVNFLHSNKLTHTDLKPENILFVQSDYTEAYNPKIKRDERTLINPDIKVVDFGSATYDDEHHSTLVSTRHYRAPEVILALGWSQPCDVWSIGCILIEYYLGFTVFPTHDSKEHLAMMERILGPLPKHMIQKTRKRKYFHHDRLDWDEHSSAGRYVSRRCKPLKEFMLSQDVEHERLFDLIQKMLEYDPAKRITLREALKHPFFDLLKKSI
Sequence of Mitogen-activated protein kinase 7 (Q13164 whole entry, the tested form may be a part): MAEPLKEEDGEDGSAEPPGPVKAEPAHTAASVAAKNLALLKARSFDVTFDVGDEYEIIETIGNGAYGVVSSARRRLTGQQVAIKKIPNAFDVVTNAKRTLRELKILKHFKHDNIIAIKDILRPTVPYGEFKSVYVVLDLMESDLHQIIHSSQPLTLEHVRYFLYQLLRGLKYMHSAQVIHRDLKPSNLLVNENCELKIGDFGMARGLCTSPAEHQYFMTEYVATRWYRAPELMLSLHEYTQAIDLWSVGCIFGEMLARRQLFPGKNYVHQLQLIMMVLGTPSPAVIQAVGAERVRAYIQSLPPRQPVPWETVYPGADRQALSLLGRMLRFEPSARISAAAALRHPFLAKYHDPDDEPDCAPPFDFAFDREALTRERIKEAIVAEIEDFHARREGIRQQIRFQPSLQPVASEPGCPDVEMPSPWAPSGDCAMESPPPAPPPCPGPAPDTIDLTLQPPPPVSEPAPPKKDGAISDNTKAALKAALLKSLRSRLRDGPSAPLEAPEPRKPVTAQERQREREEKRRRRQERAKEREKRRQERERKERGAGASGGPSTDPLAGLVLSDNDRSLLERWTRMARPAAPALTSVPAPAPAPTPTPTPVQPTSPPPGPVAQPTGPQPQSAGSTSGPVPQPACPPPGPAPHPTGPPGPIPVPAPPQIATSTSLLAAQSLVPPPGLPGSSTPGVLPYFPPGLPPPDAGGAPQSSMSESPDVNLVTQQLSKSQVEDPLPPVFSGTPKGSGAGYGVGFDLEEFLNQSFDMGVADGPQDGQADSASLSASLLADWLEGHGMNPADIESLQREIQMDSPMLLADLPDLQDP

IC50 [1]: > 100 µM
IC50 [2]: 13 µM
IC50 [3]: 31 µM
IC50 [4]: 18 µM
IC50 (MCF7): 2.16 µM
IC50 [7]: 24 µM
inhibition (INH) [8]: Not Active
IC50 (PC-3): 16.9 µM
IC50 [10]: 8.8 µM
IC50 [11]: 13 µM
IC50 [13]: 74 µM
IC50 [14]: 69 µM
IC50 [17]: 21 µM
IC50 [18]: 61 µM
IC50 [19]: 43 µM
IC50 [20]: 90 µM
IC50 [21]: 66 µM
IC50 (Jurkat): 2.7 µM
SMILES: CN(CCc1ccc(-c2ccccc2)cc1)Cc1cn(C)c2ccc(C(=O)Nc3ccc(F)cc3)cc12
Activity (IEC-6 [5]): Toxic
Activity (HeLa [6]): Active
Activity (HeLa [9]): inactive
Activity (IEC-6 [12]): Non-Toxic
IC50 [15]: 61 µM
IC50 (IEC-6 [16]): 6.43 µM
Activity (HeLa [22]): Active
